Results as given in ChEMBL document CHEMBL4842357, “Discovery of Novel Apigenin-Piperazine Hybrids as Potent and Selective Poly (ADP-Ribose) Polymerase-1 (PARP-1) Inhibitors for the Treatment of Cancer” (J Med Chem, 2021).
The source made the active and inactive calls. The rule behind the calls is not given here.

Legend:
[1] = biological target: T1, Poly [ADP-ribose] polymerase 1 (Homo sapiens, UniProt P09874); assay: Binding affinity to recombinant human PARP-1 by SPR analysis
CYP1A2 = biological target: T2, CYP1A2 (Homo sapiens, UniProt P05177); assay: Inhibition of CYP1A2 (unknown origin) at 10 uM incubated for 10 to 30 mins in presence of NADPH regeneration system by microplate analysis relative to control; assay type: ADME; conditions: time 10-30 min
T2 sequence (P05177 whole entry): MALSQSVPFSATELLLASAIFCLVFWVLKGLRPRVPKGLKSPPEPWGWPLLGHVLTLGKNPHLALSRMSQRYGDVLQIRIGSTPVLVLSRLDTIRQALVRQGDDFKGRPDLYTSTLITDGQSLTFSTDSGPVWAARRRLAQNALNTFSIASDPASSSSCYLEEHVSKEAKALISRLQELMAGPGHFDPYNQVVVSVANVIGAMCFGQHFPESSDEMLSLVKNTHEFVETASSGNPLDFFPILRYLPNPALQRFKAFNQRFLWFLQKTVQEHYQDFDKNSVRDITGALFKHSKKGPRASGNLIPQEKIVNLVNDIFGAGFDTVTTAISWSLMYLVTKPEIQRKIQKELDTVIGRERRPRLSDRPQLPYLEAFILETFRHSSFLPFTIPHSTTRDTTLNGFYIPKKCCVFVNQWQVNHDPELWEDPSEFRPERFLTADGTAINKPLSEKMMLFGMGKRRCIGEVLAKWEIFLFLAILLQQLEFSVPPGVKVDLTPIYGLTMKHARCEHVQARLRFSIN

[2] = Hepatotoxicity in ICR mouse assessed as effect on ALT level at 1000 mg/kg, po administered only once at day 1 and measured every two days for 14 days (reference value: 28.6 +/- 6.9 U/L); assay type: toxicity, organism-based; conditions: in vivo, 336 h, time 14 day
[3] = Renal toxicity in ICR mouse assessed as effect on BUN level at 1000 mg/kg, po administered only once at day 1 and measured every two days for 14 days (reference value: 8.9 +/- 0.9 mmol/L); assay type: organism-based; conditions: in vivo, 336 h, time 14 day
[4] = biological target: T1, Poly [ADP-ribose] polymerase 1; assay: Inhibition of recombinant human full-length PARP-1 using biotinylated substrate
[5] = Acute toxicity in ICR mouse assessed as change in blood routine at 1000 mg/kg, po administered only once at day 1 and measured every two days for 14 days; assay type: organism-based; conditions: in vivo, 336 h, time 14 day
[6] = Stability in rat plasma assessed as compound remaining after 0.5 hrs; assay type: ADME, cell-free; conditions: read-out: Stabilty
[7] = Hepatotoxicity in ICR mouse assessed as effect on AST level at 1000 mg/kg, po administered only once at day 1 and measured every two days for 14 days (reference value: 61.5 +/- 3.7 U/L); assay type: toxicity, organism-based; conditions: in vivo, 336 h, time 14 day
[8] = Stability in rat plasma assessed as compound remaining after 4 hrs; assay type: ADME, cell-free; conditions: read-out: Stabilty
CYP3A4 = CYP3A4 (Homo sapiens, UniProt P08684); assay: Inhibition of CYP3A4 (unknown origin) at 10 uM incubated for 10 to 30 mins in presence of NADPH regeneration system by microplate analysis relative to control; assay type: ADME; conditions: time 10-30 min
Sequence of CYP3A4 (P08684 whole entry): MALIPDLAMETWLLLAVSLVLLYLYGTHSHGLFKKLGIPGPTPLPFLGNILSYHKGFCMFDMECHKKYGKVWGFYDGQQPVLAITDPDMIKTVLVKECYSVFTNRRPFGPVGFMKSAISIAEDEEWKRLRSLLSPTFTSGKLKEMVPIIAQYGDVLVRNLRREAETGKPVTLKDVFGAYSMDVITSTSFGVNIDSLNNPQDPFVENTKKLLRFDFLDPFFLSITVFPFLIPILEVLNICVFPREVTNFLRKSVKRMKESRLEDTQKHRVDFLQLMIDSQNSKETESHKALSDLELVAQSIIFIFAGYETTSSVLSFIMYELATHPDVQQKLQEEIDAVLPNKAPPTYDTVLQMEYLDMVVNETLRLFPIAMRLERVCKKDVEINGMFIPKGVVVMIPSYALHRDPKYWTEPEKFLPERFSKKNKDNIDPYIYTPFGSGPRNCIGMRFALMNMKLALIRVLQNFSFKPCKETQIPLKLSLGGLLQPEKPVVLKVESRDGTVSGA

CYP2C9 = CYP2C9 (Homo sapiens, UniProt P11712); assay: Inhibition of CYP2C9 (unknown origin) at 10 uM incubated for 10 to 30 mins in presence of NADPH regeneration system by microplate analysis relative to control; assay type: ADME; conditions: time 10-30 min
Sequence of CYP2C9 (P11712 whole entry): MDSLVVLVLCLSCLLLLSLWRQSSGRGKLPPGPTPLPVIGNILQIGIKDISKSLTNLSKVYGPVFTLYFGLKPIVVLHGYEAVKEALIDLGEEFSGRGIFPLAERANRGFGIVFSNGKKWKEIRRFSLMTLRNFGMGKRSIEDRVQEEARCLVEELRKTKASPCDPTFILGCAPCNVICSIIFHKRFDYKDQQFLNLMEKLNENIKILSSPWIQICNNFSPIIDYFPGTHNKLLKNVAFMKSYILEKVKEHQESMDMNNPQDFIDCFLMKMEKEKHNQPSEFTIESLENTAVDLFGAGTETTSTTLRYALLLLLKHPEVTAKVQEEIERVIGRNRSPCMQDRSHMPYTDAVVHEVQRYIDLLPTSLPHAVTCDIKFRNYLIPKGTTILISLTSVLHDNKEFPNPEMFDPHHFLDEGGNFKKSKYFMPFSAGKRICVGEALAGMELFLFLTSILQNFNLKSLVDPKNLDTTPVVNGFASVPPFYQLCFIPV

[9] = Acute toxicity in ICR mouse assessed as change in body weight at 1000 mg/kg, po administered only once at day 1 and measured every two days for 14 days; assay type: organism-based; conditions: in vivo, 336 h, time 14 day
[10] = biological target: T3, Poly [ADP-ribose] polymerase 2 (Homo sapiens, UniProt Q9UGN5); assay: Binding affinity to recombinant human PARP-2 by SPR analysis
T3 sequence (Q9UGN5 whole entry): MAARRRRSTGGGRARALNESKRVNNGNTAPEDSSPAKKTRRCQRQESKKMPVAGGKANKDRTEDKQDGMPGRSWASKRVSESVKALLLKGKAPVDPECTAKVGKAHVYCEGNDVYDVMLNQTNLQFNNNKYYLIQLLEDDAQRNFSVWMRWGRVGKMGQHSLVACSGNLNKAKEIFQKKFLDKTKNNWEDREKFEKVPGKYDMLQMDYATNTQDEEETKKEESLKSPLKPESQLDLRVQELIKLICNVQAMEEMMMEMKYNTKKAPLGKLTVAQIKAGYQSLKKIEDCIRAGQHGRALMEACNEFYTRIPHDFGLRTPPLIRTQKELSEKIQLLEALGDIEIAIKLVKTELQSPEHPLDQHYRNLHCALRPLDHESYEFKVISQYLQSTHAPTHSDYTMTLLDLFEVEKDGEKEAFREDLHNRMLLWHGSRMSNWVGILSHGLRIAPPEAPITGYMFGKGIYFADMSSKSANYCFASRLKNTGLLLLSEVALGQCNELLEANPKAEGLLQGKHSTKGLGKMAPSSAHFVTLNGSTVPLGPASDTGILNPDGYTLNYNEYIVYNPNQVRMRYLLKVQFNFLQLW

CYP2C19 = CYP2C19 (Homo sapiens, UniProt P33261); assay: Inhibition of CYP2C19 (unknown origin) at 10 uM incubated for 10 to 30 mins in presence of NADPH regeneration system by microplate analysis relative to control; assay type: ADME; conditions: time 10-30 min
Sequence of CYP2C19 (P33261 whole entry): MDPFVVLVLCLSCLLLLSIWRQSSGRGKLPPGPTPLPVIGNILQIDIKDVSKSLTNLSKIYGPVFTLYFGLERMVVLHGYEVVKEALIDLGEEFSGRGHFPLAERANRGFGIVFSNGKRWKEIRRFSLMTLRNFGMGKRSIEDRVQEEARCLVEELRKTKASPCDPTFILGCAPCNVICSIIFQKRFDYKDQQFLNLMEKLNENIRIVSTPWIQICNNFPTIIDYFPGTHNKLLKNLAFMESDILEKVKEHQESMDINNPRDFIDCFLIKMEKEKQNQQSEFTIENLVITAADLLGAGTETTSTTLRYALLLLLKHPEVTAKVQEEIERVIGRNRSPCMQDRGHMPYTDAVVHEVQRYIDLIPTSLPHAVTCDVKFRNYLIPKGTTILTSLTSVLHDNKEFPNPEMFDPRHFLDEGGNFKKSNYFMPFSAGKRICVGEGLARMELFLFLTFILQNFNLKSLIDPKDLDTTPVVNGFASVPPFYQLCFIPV

[11] = biological target: T3, Poly [ADP-ribose] polymerase 2; assay: Inhibition of recombinant human full-length PARP-2 using biotinylated substrate
CYP2D6 = CYP2D6 (Homo sapiens, UniProt P10635); assay: Inhibition of CYP2D6 (unknown origin) at 10 uM incubated for 10 to 30 mins in presence of NADPH regeneration system by microplate analysis relative to control; assay type: ADME; conditions: time 10-30 min
Sequence of CYP2D6 (P10635 whole entry): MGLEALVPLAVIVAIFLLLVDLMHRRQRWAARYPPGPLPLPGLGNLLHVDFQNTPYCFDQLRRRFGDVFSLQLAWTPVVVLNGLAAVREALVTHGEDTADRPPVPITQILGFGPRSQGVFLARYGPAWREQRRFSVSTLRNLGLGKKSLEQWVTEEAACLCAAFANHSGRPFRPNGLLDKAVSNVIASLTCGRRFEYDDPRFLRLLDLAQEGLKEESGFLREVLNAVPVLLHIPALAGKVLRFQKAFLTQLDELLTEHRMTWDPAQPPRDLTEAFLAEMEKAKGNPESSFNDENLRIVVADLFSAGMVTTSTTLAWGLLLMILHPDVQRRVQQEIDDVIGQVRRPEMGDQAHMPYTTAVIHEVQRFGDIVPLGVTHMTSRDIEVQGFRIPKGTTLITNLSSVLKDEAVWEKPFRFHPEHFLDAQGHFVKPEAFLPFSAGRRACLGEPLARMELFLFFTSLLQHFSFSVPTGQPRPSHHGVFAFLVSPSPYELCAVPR

[12] = biological target: T1, Poly [ADP-ribose] polymerase 1; assay: Binding affinity to PARP-1 in human SK-OV-3 cells assessed as thermal stabilization after 3 hrs by ITDRF-CETSA; assay type: cell-based; conditions: dose 0.1-10 µM
SK-OV-3 [13] = assay: Antitumor activity against human SK-OV-3 cells xenografted in BALB/c nude mouse assessed as decrease in PAR level at 25 to 50 mg/kg, po measured after 28 days by Western blot analysis; assay type: functional, organism-based; conditions: dose 25-50 mg/kg, time 28.0 day
A549 [14] = assay: Antitumor activity against human A549 cells xenografted in BALB/c nude mouse assessed as induction of CBP mediated tumor growth inhibition at 50 mg/kg, po administered once daily for 12 days in presence of CBP; assay type: functional, organism-based; conditions: time 12.0 day
SK-OV-3 [15] = assay: Antitumor activity against human SK-OV-3 cells xenografted in BALB/c nude mouse assessed as decrease in tumor volume at 50 mg/kg, po administered once daily measured for 28 days; assay type: functional, organism-based; conditions: time 28.0 day
SK-OV-3 [16] = assay: Antitumor activity against human SK-OV-3 cells xenografted in BALB/c nude mouse assessed as decrease in PAR level at 25 to 50 mg/kg, po measured after 28 days by immunohistochemistry analysis; assay type: functional, organism-based; conditions: dose 25-50 mg/kg, time 28.0 day
[17] = biological target: T1, Poly [ADP-ribose] polymerase 1; assay: Inhibition of PARP-1 in human SK-OV-3 cells assessed as decrease in H2O2-induced PAR level at 0.1 to 10 uM preincubated for 4 hrs followed by H2O2 addition by Western blot analysis; assay type: cell-based; conditions: dose 0.1-10 µM
[18] = biological target: T1, Poly [ADP-ribose] polymerase 1; assay: Inhibition of PARP-1 in human SK-OV-3 cells assessed as decrease in MCM2 protein expression level at 0.1 to 10 uM by Western blot analysis; assay type: cell-based; conditions: dose 0.1-10 µM
SK-OV-3 [19] = assay: Cytotoxicity against human BRCA-1 deficient SK-OV-3 cells assessed as reduction in cell viability at 0.1 to 10 uM incubated for 48 hrs by MTT assay; assay type: functional, cell-based; conditions: dose 0.1-10 µM
[20] = biological target: T1, Poly [ADP-ribose] polymerase 1; assay: Binding affinity to PARP-1 in human SK-OV-3 cells assessed as increase in thermal stabilization of PARP-1 at 1 uM after 3 hrs by CETSA; assay type: cell-based
A549 [21] = assay: Antitumor activity against human A549 cells xenografted in BALB/c nude mouse assessed as tumor growth inhibition at 50 mg/kg, po administered once daily for 12 days; assay type: functional, organism-based; conditions: time 12.0 day
[22] = biological target: T1, Poly [ADP-ribose] polymerase 1; assay: Inhibition of PARP-1 in human SK-OV-3 cells assessed as decrease in MCM4 protein expression level at 0.1 to 10 uM by Western blot analysis; assay type: cell-based; conditions: dose 0.1-10 µM
[23] = biological target: T3, Poly [ADP-ribose] polymerase 2; assay: Binding affinity to PARP-2 in human SK-OV-3 cells assessed as thermal stabilization after 3 hrs by ITDRF-CETSA; assay type: cell-based; conditions: dose 0.1-10 µM
[24] = biological target: T1, Poly [ADP-ribose] polymerase 1; assay: Inhibition of PARP-1 in human SK-OV-3 cells assessed as decrease in MCM6 protein expression level at 0.1 to 10 uM by Western blot analysis; assay type: cell-based; conditions: dose 0.1-10 µM
[25] = biological target: T1, Poly [ADP-ribose] polymerase 1; assay: Inhibition of PARP-1 in human SK-OV-3 cells assessed as decrease in H2O2-induced PAR level preincubated for 4 hrs followed by H2O2 addition by DAPI staining based inverted fluorescence microscopic analysis; assay type: cell-based
Homo sapiens = organism: Homo sapiens; assay: Selectivity index, ratio of IC50 for inhibition of recombinant human full-length PARP-2 to IC50 for inhibition of recombinant human full-length PARP-1
[26] = biological target: T1, Poly [ADP-ribose] polymerase 1; assay: Inhibition of PARP-1 in human SK-OV-3 cells assessed as induction of DNA damage by measuring increase in gamma H2AX expression by immunofluorescence assay; assay type: cell-based
A549 [27] = assay: Cytotoxicity against human A549 cells assessed as reduction in cell viability at 0.1 to 10 uM incubated for 48 hrs by MTT assay; assay type: functional, cell-based; conditions: dose 0.1-10 µM
[28] = biological target: T1, Poly [ADP-ribose] polymerase 1; assay: Inhibition of PARP-1 in human SK-OV-3 cells assessed as decrease in MCM7 protein expression level at 0.1 to 10 uM by Western blot analysis; assay type: cell-based; conditions: dose 0.1-10 µM
[29] = biological target: T1, Poly [ADP-ribose] polymerase 1; assay: Inhibition of PARP-1 in human SK-OV-3 cells assessed as decrease in MCM3 protein expression level at 0.1 to 10 uM by Western blot analysis; assay type: cell-based; conditions: dose 0.1-10 µM
A549 [30] = assay: Cytotoxicity against human A549 cells assessed as induction of CBP cytotoxicity incubated for 48 hrs in presence of CBP by MTT assay; assay type: functional, cell-based; conditions: dose 0.1-10 µM
SK-OV-3 [31] = assay: Antitumor activity against human SK-OV-3 cells xenografted in BALB/c nude mouse assessed as increase in gamma-H2AX expression in tumor at 25 to 50 mg/kg, po measured after 28 days by immunohistochemistry analysis; assay type: functional, organism-based; conditions: dose 25-50 mg/kg, time 28.0 day
[32] = biological target: T3, Poly [ADP-ribose] polymerase 2; assay: Binding affinity to PARP-2 in human SK-OV-3 cells assessed as increase in thermal stabilization of PARP-2 at 1 uM after 3 hrs by CETSA; assay type: cell-based
SK-OV-3 [33] = assay: Antitumor activity against human SK-OV-3 cells xenografted in BALB/c nude mouse assessed as increase in gamma-H2AX expression in tumor at 25 to 50 mg/kg, po measured after 28 days by Western blot analysis; assay type: functional, organism-based; conditions: dose 25-50 mg/kg, time 28.0 day
[34] = biological target: T1, Poly [ADP-ribose] polymerase 1; assay: Inhibition of PARP-1 in human SK-OV-3 cells assessed as decrease in MCM5 protein expression level at 0.1 to 10 uM by Western blot analysis; assay type: cell-based; conditions: dose 0.1-10 µM
SK-OV-3 [35] = assay: Cytotoxicity against human SK-OV-3 cells transfected with PARP-1 siRNA assessed as reduction in cell viability at 0.1 to 10 uM after 48 hrs by MTT assay; assay type: functional, cell-based; conditions: dose 0.1-10 µM
[36] = biological target: T1, Poly [ADP-ribose] polymerase 1; assay: Inhibition of PARP-1 in human SK-OV-3 cells assessed as induction of DNA damage by measuring increase in gamma H2AX expression at 0.1 to 10 uM by Western blot analysis; assay type: cell-based; conditions: dose 0.1-10 µM
A549 [37] = assay: Cytotoxicity against human A549 cells transfected with PARP-1 siRNA assessed as sensitization of CBP at 0.1 to 10 uM incubated for 48 hrs in presence of CBP by MTT assay; assay type: functional, cell-based; conditions: dose 0.1-10 µM

T1 sequence (P09874 whole entry): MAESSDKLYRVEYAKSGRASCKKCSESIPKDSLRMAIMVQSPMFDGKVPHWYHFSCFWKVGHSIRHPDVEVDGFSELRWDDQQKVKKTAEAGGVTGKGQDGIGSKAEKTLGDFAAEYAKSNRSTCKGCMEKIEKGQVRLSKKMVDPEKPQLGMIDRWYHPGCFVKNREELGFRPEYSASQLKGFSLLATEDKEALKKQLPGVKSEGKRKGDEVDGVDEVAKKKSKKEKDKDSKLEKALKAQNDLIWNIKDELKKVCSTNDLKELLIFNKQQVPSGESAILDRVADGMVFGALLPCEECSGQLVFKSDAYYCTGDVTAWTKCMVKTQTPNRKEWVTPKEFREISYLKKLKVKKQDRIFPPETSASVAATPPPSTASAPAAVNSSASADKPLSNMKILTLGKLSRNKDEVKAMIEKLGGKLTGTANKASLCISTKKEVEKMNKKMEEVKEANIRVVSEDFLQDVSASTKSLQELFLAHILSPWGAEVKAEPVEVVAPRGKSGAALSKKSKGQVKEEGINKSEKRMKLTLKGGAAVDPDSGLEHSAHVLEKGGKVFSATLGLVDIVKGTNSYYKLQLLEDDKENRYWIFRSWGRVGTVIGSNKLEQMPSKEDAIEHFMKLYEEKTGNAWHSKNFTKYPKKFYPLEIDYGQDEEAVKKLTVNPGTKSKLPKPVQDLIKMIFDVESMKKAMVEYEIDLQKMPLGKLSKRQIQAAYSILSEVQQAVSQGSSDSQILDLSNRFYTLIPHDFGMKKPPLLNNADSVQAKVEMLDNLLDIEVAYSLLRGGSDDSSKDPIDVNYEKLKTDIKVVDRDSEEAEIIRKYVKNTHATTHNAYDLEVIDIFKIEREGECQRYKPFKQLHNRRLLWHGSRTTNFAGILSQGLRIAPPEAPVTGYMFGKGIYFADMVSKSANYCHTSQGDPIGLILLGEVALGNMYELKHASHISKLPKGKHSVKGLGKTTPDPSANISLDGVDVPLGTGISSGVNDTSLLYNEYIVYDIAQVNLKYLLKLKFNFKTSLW

O=c1cc(-c2ccc(O)cc2)oc2c(CN3CCN(Cc4cccs4)CC3)c(O)cc(O)c12 [listing 1 of 2 here]
Kd [1]: 55 nM | inhibition at 10 µM (CYP1A2): 85.2% | Activity [2]: 27.6 U/L | Activity [3]: 9 mmol/L | IC50 [4]: 14.7 nM | Activity [5]: Non-Toxic | remaining at 0.5 h [6]: 83.4% | Activity [7]: 64.1 U/L | remaining at 4 h [8]: 46.2% | inhibition at 10 µM (CYP3A4): 93.4% | inhibition at 10 µM (CYP2C9): 94.7% | Activity [9]: Non-Toxic | Kd [10]: 605 nM | inhibition at 10 µM (CYP2C19): 70.4% | IC50 [11]: 900 nM | inhibition at 10 µM (CYP2D6): 92.7%

O=c1cc(-c2ccc(O)cc2)oc2c(CN3CCN(Cc4cccs4)CC3)c(O)cc(O)c12 [listing 2 of 2 here]
Activity [12]: Dose-Dependent Effect | Activity (SK-OV-3 [13]): Active | Activity (A549 [14]): Active | Activity (SK-OV-3 [15]): Active | Activity (SK-OV-3 [16]): Active | inhibition [17]: Active | inhibition [18]: Active | Activity (SK-OV-3 [19]): Active | Activity [20]: Active | Activity (A549 [21]): inactive | inhibition [22]: Active | Activity [23]: Dose-Dependent Effect | inhibition [24]: Active | inhibition [25]: Active | Ratio IC50 (Homo sapiens): 61.2 | inhibition [26]: Active | Activity (A549 [27]): inactive | inhibition [28]: Active | inhibition [29]: Active | Activity (A549 [30]): Dose-Dependent Effect | Activity (SK-OV-3 [31]): Active | Activity [32]: Active | Activity (SK-OV-3 [33]): Active | inhibition [34]: Active | Activity (SK-OV-3 [35]): inactive | inhibition [36]: Active | Activity (A549 [37]): inactive
